Source: patent US20230257372A1 (CHONG KUN DANG PHARMACEUTICAL CORP., priority 2020, published 2023)
Where two headings read alike, the source gives them in different places.

Experiments:
human recombinant HDAC1 = biological target: T1, human recombinant HDAC1 (Homo sapiens, UniProt Q13547); assay: HDAC1 enzyme activity inhibition (HDAC Fluorimetric Drug Discovery Kit); format: biochemical; settings: read-out: HDAC1
T1 construct: purchased Enzo Life Science, Inc. BML-SE456
Outline: (§1)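 Each isoform is run in the same format: compound dilutions (5-fold steps), 10 μM substrate, […] enzyme, one hour at 30° C, then 30 minutes with developer before fluorescence readout.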

human recombinant HDAC6 = biological target: T2, human recombinant HDAC6 (Homo sapiens, UniProt Q9UBN7); assay: HDAC6 enzyme activity inhibition (HDAC Fluorimetric Drug Discovery Kit); format: biochemical
T2 construct: purchased Calbiochem Inc. 382180
T2 sequence (Q9UBN7 1-1215): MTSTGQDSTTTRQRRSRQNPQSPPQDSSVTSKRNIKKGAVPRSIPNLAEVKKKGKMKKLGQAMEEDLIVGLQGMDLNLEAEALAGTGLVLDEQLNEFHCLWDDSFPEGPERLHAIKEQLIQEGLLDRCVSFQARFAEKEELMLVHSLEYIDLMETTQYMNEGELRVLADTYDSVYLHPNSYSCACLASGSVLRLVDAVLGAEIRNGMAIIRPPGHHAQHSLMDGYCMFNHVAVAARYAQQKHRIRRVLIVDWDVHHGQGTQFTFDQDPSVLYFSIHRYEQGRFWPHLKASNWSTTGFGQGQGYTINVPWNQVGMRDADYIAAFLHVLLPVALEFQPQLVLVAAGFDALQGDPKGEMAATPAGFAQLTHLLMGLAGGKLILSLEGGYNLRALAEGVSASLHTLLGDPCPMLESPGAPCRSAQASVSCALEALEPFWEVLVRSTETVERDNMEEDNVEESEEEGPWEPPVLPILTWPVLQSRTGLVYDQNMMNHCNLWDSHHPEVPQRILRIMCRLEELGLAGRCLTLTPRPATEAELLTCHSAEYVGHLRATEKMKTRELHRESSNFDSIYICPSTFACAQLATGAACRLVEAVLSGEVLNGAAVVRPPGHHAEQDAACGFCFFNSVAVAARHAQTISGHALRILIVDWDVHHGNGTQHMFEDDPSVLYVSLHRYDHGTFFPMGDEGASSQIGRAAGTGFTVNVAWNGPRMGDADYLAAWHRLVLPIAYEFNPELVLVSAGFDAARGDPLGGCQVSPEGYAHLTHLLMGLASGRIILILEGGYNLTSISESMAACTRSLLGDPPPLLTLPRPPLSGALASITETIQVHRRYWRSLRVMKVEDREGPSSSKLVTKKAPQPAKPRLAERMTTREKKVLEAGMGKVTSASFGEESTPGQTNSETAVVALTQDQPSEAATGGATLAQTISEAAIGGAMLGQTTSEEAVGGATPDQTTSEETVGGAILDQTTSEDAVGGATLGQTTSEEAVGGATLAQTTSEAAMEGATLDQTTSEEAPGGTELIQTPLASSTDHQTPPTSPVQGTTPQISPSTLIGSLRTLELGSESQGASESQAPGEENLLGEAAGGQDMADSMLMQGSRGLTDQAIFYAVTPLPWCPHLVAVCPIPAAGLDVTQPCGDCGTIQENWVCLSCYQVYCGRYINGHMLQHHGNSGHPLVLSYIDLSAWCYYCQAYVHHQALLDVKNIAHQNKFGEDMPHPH
Outline: as §1

[1] = human recombinant HDAC1, IC50 calculated with GraphPad Prism
[2] = human recombinant HDAC6, IC50 calculated with GraphPad Prism
[3] = human recombinant HDAC1, Fluor de Lys substrate, 30° C. 60 minutes
[4] = human recombinant HDAC6, same protocol as HDAC1

T1 sequence (Q13547 whole entry): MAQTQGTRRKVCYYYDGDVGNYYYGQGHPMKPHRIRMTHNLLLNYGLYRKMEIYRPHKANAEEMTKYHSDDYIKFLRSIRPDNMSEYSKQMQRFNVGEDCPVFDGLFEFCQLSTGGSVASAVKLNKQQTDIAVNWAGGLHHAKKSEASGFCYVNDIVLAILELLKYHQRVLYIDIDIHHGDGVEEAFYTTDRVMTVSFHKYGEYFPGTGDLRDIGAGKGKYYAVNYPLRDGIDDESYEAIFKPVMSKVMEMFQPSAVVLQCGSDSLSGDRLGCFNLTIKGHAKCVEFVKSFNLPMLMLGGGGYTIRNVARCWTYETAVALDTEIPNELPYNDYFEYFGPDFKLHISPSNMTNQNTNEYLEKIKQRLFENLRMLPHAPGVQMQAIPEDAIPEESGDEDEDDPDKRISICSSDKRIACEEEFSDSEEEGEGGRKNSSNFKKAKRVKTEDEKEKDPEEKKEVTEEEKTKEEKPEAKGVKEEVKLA

| IC50 (human recombinant HDAC1; [1]) [µM] | HDAC6 selectivity (fold) (human recombinant HDAC6; HDAC1 IC50 / HDAC6 IC50) | IC50 (human recombinant HDAC6; [2]) [µM] | IC50 (human recombinant HDAC1; [3]) [µM] | HDAC6 selectivity (fold) (human recombinant HDAC6; HDAC6 over HDAC1) | IC50 (human recombinant HDAC6; [4]) [µM] | Compound |
| --- | --- | --- | --- | --- | --- | --- |
| > 50 | 1597 | 0.0313 | – | – | – | FC(F)c1nnc(-c2ccc(Cn3cc(-c4cccc(N5CCN(C6COC6)CC5)c4)nn3)nc2)o1 [Compound 3989, 2-(difluoromethyl)-5-(6-((4-(3-(4-(oxetan-3-yl)piperazin-1-yl)phenyl)-1H-1,2,3-triazol-1-yl)methyl)pyridin-3-yl)-1,3,4-oxadiazole] |
| > 50 | 1623 | 0.0308 | – | – | – | Fc1cc(-c2nnc(C(F)F)o2)ccc1Cn1cc(-c2cccc(N3CCOCC3)c2)nn1 [Compound 4339, 4-(3-(1-(4-(5-(difluoromethyl)-1,3,4-oxadiazol-2-yl)-2-fluorobenzyl)-1H-1,2,3-triazol-4-yl)phenyl)morpholine] |
| – | – | – | > 50 | 2762 | 0.0181 | FC(F)c1nnc(-c2ccc(Cn3cc(-c4ccc(CN5CCCC5)cc4)nn3)cc2)o1 [Compound 4550, 2-(difluoromethyl)-5-(4-((4-(4-(pyrrolidin-1-ylmethyl)phenyl)-1H-1,2,3-triazol-1-yl)methyl)phenyl)-1,3,4-oxadiazole] |
| > 50 | 246 | 0.203 | – | – | – | CN1CCC(Cc2cn(Cc3ccc(-c4nnc(C(F)F)o4)cn3)nn2)CC1 [Compound 4014, 2-(difluoromethyl)-5-(6-((4-((1-methylpiperidin-4-yl)methyl)-1H-1,2,3-triazol-1-yl)methyl)pyridin-3-yl)-1,3,4-oxadiazole] |
| – | – | – | > 50 | 429 | 0.116 | Fc1cc(-c2nnc(C(F)F)o2)cnc1Cn1cc(-c2cccc(C3CCN(C4CN(C5CCC5)C4)CC3)c2)nn1 [Compound 18878] |
| > 50 | 781 | 0.064 | – | – | – | FC1CN(Cc2cccc(-c3cn(Cc4ccc(-c5nnc(C(F)F)o5)cc4)nn3)c2)C1 [Compound 4410, 2-(difluoromethyl)-5-(4-((4-(3-((3-fluoroazetidin-1-yl)methyl)phenyl)-1H-1,2,3-triazol-1-yl)methyl)phenyl)-1,3,4-oxadiazole] |
| – | – | – | > 50 | 1213 | 0.0412 | FC1CN(Cc2ccc(-c3cn(Cc4ccc(-c5nnc(C(F)F)o5)cc4)nn3)cc2)C1 [Compound 4549, 2-(difluoromethyl)-5-(4-((4-(4-((3-fluoroazetidin-1-yl)methyl)phenyl)-1H-1,2,3-triazol-1-yl)methyl)phenyl)-1,3,4-oxadiazole] |
| > 50 | 1170 | 0.0427 | – | – | – | CCN1CCC(c2cccc(-c3cn(Cc4ccc(-c5nnc(C(F)F)o5)cc4F)nn3)c2)CC1 [Compound 4291, 2-(difluoromethyl)-5-(4-((4-(3-(1-ethylpiperidin-4-yl)phenyl)-1H-1,2,3-triazol-1-yl)methyl)-3-fluorophenyl)-1,3,4-oxadiazole] |
| > 50 | 349 | 0.143 | – | – | – | Fc1cc(-c2nnc(C(F)F)o2)ccc1Cn1cc(-c2cccc3cc[nH]c23)nn1 [Compound 4082, 2-(4-((4-(1H-indol-7-yl)-1H-1,2,3-triazol-1-yl)methyl)-3-fluorophenyl)-5-(difluoromethyl)-1,3,4-oxadiazole] |
| – | – | – | > 50 | 856 | 0.0584 | Fc1cc(-c2cn(Cc3ncc(-c4nnc(C(F)F)o4)cc3F)nn2)ccc1CN1CCCC1 [Compound 18948, 2-(difluoromethyl)-5-(5-fluoro-6-((4-(3-fluoro-4-(pyrrolidin-1-ylmethyl)phenyl)-1H-1,2,3-triazol-1-yl)methyl)pyridin-3-yl)-1,3,4-oxadiazole] |
| > 50 | 672 | 0.0744 | – | – | – | Fc1ccnc(-c2cn(Cc3ccc(-c4nnc(C(F)F)o4)cn3)nn2)c1 [Compound 4179, 2-(difluoromethyl)-5-(6-((4-(4-fluoropyridin-2-yl)-1H-1,2,3-triazol-1-yl)methyl)pyridin-3-yl)-1,3,4-oxadiazole] |
| – | – | – | > 50 | 628 | 0.0795 | CN1CCN(c2ccc(-c3cn(Cc4ccc(-c5nnc(C(F)F)o5)cc4F)nn3)cn2)CC1 [Compound 16789, 2-(difluoromethyl)-5-(3-fluoro-4-((4-(6-(4-methylpiperazin-1-yl)pyridin-3-yl)-1H-1,2,3-triazol-1-yl)methyl)phenyl)-1,3,4-oxadiazole] |
| > 50 | 103 | 0.483 | – | – | – | OCc1c(-c2ccccc2)nnn1Cc1ccc(-c2nnc(C(F)F)o2)cc1F [Compound 4479, (1-(4-(5-(difluoromethyl)-1,3,4-oxadiazol-2-yl)-2-fluorobenzyl)-4-phenyl-1H-1,2,3-triazol-5-yl)methanol] |
| – | – | – | > 50 | 1012 | 0.0494 | Fc1cc(-c2nnc(C(F)F)o2)ccc1Cn1cc(-c2cn[nH]c2)nn1 [Compound 17261, 2-(4-((4-(1H-pyrazol-4-yl)-1H-1,2,3-triazol-1-yl)methyl)-3-fluorophenyl)-5-(difluoromethyl)-1,3,4-oxadiazole] |
| 33 | 500 | 0.066 | – | – | – | FC(F)c1nnc(-c2ccc(Cn3cc(-c4ccccc4N4CCOCC4)nn3)nc2)o1 [Compound 4104, 4-(2-(1-((5-(5-(difluoromethyl)-1,3,4-oxadiazol-2-yl)pyridin-2-yl)methyl)-1H-1,2,3-triazol-4-yl)phenyl)morpholin] |
| > 50 | 272 | 0.184 | – | – | – | FC(F)c1nnc(-c2ccc(Cc3nnc(-c4ccccc4)o3)cc2)o1 [Compound 3980, 2-(difluoromethyl)-5-(4-((5-phenyl-1,3,4-oxadiazol-2-yl)methyl)phenyl)-1,3,4-oxadiazole] |
| > 50 | 2008 | 0.0249 | – | – | – | Fc1cc(-c2nnc(C(F)F)o2)ccc1Cn1cc(-c2ccc(CNC3CCC(F)(F)CC3)cc2)nn1 [Compound 4477, N-(4-(1-(4-(5-(difluoromethyl)-1,3,4-oxadiazol-2-yl)-2-fluorobenzyl)-1H-1,2,3-triazol-4-yl)benzyl)-4,4-difluorocyclohexan-1-amine] |
| – | – | – | > 50 | 675 | 0.074 | Fc1cc(-c2nnc(C(F)F)o2)cnc1Cn1cc(-c2cccc(C3CCN(C4COC4)CC3)c2)nn1 [Compound 18871, 2-(difluoromethyl)-5-(5-fluoro-6-((4-(3-(1-(oxetan-3-yl)piperidin-4-yl)phenyl)-1H-1,2,3-triazol-1-yl)methyl)pyridin-3-yl)-1,3,4-oxadiazole] |
| – | – | – | > 50 | 1567 | 0.0319 | Fc1cc(-c2nnc(C(F)F)o2)ccc1Cn1cc(-c2ccnc(N3CCN(C4COC4)CC3)c2)nn1 [Compound 4636] |
| > 50 | 52 | 0.945 | – | – | – | Fc1cc(-c2nnc(C(F)F)o2)ccc1Cn1cc(-c2cc(C(F)(F)F)cc(C(F)(F)F)c2)nn1 [Compound 3696, 2-(4-((4-(3,5-bis(trifluoromethyl)phenyl)-1H-1,2,3-triazol-1-yl)methyl)-3-fluorophenyl)-5-(difluoromethyl)-1,3,4-oxadiazole] |

| Compound | IC50 (human recombinant HDAC1; [1]) [µM] | HDAC6 selectivity (fold) (human recombinant HDAC6; HDAC1 IC50 / HDAC6 IC50) | IC50 (human recombinant HDAC6; [2]) [µM] | IC50 (human recombinant HDAC1; [3]) [µM] | HDAC6 selectivity (fold) (human recombinant HDAC6; HDAC6 over HDAC1) | IC50 (human recombinant HDAC6; [4]) [µM] |
| --- | --- | --- | --- | --- | --- | --- |
| COC(=O)N1CCC[C@H]1c1cn(Cc2ccc(-c3nnc(C(F)F)o3)cn2)nn1 [Compound 4028, methyl (S)-2-(1-((5-(5-(difluoromethyl)-1,3,4-oxadiazol-2-yl)pyridin-2-yl)methyl)-1H-1,2,3-triazol-4-yl)pyrrolidin-1-carboxylate] | > 50 | 238 | 0.21 | – | – | – |
